From EPA's ToxRefDB 2

What was measured:
rabbit [1] = conditions: Subchronic inhalation toxicity, new zealand white, Whole-Body, dose end: 13 week, group: systemic
mouse [2] = conditions: Subchronic oral toxicity in rodents, b6c3f1, Water, dose end: 13 week
rat [3] = conditions: Prenatal developmental toxicity study, wistar, Inhalation, Whole-Body, dose end: 19 GD
rat [4] = conditions: Subchronic oral toxicity in rodents, fischer, Water, dose end: 13 week
rat [5] = conditions: Prenatal developmental toxicity study, wistar, Inhalation, Whole-Body, dose end: 19 GD; remark: listed apart in the source
rat [6] = conditions: Prenatal developmental toxicity study, wistar, Inhalation, Whole-Body, dose end: 15 GD
rabbit [7] = conditions: Prenatal developmental toxicity study, new zealand white, Inhalation, Whole-Body, dose end: 18 GD
rabbit [8] = conditions: Prenatal developmental toxicity study; dutch; Inhalation; Whole-Body; dose end: 18 GD; group: developmental; developmental / developmental malformation / bone / incomplete ossification + developmental / developmental malformation / bone / …
mouse [9] = conditions: Carcinogenicity, b6c3f1, Oral, Gavage/Intubation, dose end: 2 year, group: systemic
rat [10] = conditions: Subchronic inhalation toxicity, sprague dawley, Whole-Body, dose end: 13 week, group: systemic
rat [11] = conditions: Carcinogenicity, fischer, Oral, Gavage/Intubation, dose end: 2 year, group: systemic
rat [12] = conditions: Combined chronic toxicity/carcinogenicity; sprague dawley; Oral; Feed; dose end: 104 week; group: systemic; systemic / clinical chemistry / alanine aminotransferase (alt/sgpt) / alanine aminotransferase (alt/sgpt) + systemic / clinical chemistry / …
dog = conditions: Chronic toxicity, beagle, Oral, Feed, dose end: 52 week, group: systemic
mouse [13] = conditions: Carcinogenicity; cd1; Oral; Feed; dose end: 78 week; group: systemic; systemic / organ weight / liver / nos + systemic / organ weight / liver / relative to body weight + systemic / pathology microscopic / liver…
rat [14] = conditions: Multigenerational reproductive toxicity study, Charles River CD, Oral, Feed, dose end: 2 generation
mouse [15] = conditions: Subchronic oral toxicity in rodents, cd1, Feed, dose end: 13 week, group: systemic
rat [16] = conditions: Subchronic oral toxicity in rodents, sprague dawley, Feed, dose end: 13 week, group: systemic
rat [17] = conditions: Prenatal developmental toxicity study, sprague dawley, Oral, Gavage/Intubation, dose end: 19 GD
[18] = systemic / clinical chemistry / cholesterol / cholesterol
[19] = systemic / clinical chemistry / cholesterol / cholesterol + systemic / hematology / erythrocyte (rbc) count differential / erythrocyte (rbc…
[20] = group: maternal, reproductive / reproductive performance / estrous cycle / length
[21] = group: systemic, systemic / in life observation / body weight / body weight gain + systemic / organ weight / testes / absolute + systemic / pathology gross…
[22] = group: developmental, developmental / developmental malformation / bone / incomplete ossification + developmental / developmental malformation / bone / knobby + …
[23] = group: maternal, reproductive / reproductive performance / resorptions / resorptions + systemic / in life observation / body weight / body weight + systemic…
[24] = group: maternal, systemic / organ weight / spleen / relative to body weight
[25] = group: maternal, reproductive / reproductive performance / estrous cycle / abnormal + reproductive / reproductive performance / estrous cycle / length
[26] = group: systemic, systemic / clinical chemistry / alkaline phosphatase (alp/alk) / alkaline phosphatase (alp/alk)
[27] = group: systemic, systemic / in life observation / body weight / body weight + systemic / in life observation / body weight / body weight gain + systemic / …
[28] = group: maternal, reproductive / reproductive performance / resorptions / resorptions
[29] = group: developmental, systemic / in life observation / body weight / litter weight
[30] = group: developmental, systemic / in life observation / body weight / litter weight + developmental / developmental malformation / bone / incomplete ossification…
[31] = group: maternal, reproductive / reproductive performance / preimplantation loss / preimplantation loss + reproductive / offspring survival early / live …
[32] = group: developmental, developmental / developmental malformation / bone / supernumerary + developmental / developmental malformation / heart / [other] + …
[33] = group: maternal, reproductive / reproductive performance / resorptions / resorptions + systemic / in life observation / body weight / body weight gain + …
[34] = group: maternal, reproductive / reproductive performance / resorptions / resorptions + systemic / in life observation / food consumption / food consumption…
[35] = systemic / in life observation / mortality / mortality + systemic / pathology gross / stomach / ulcer + systemic / pathology gross / testes…
[36] = systemic / organ weight / spleen / absolute + systemic / organ weight / spleen / relative to body weight
[37] = systemic / organ weight / spleen / absolute + systemic / organ weight / spleen / relative to body weight + systemic / clinical chemistry / …
[38] = systemic / in life observation / body weight / body weight
[39] = systemic / in life observation / body weight / body weight + systemic / pathology gross / adrenal gland / enlarged
[40] = systemic / organ weight / adrenal gland / absolute + systemic / organ weight / heart / absolute + systemic / organ weight / spleen / …
[41] = group: offspring, systemic / in life observation / body weight / offspring (pup) weight + systemic / organ weight / liver / absolute + systemic / organ weight…
[42] = group: parental, systemic / organ weight / spleen / relative to body weight
[43] = group: reproductive, reproductive / reproductive performance / fertility / fertility
[44] = group: reproductive, reproductive / reproductive performance / fertility / fertility + reproductive / offspring survival early / birth index / live birth index
[45] = systemic / clinical chemistry / alanine aminotransferase (alt/sgpt) / alanine aminotransferase (alt/sgpt) + systemic / clinical chemistry / …
[46] = systemic / pathology microscopic / liver / [other] + systemic / pathology microscopic / liver / hematopoietic cell proliferation + systemic…
[47] = systemic / hematology / erythrocyte (rbc) count differential / erythrocyte (rbc)
[48] = group: developmental, developmental / developmental malformation / bone / bent + developmental / developmental malformation / bone / incomplete ossification + …
[49] = group: maternal, systemic / in life observation / body weight / body weight gain + systemic / in life observation / clinical signs / lethargy + systemic / in…

CCOCCO [2-Ethoxyethanol]
LEL (rabbit [1]; [18]): 25 ppm
NEL (rabbit [1]; [18]): < 25 ppm
LOAEL (rabbit [1]; [19]): > 400 ppm
NOAEL (rabbit [1]; [19]): ≥ 400 ppm
LEL (mouse [2]; [20]): 722 mg/kg/day
LOAEL (mouse [2]; [20]): > 11200 mg/kg/day
NEL (mouse [2]; [20]): < 722 mg/kg/day
NOAEL (mouse [2]; [20]): ≥ 11200 mg/kg/day
LOAEL (mouse [2]; [21]): 5120 mg/kg/day
NOAEL (mouse [2]; [21]): 2000 mg/kg/day
LEL (mouse [2]; group: systemic, systemic / pathology microscopic / adrenal gland / hypertrophy): 2720 mg/kg/day
NEL (mouse [2]; group: systemic, systemic / pathology microscopic / adrenal gland / hypertrophy + systemic / in life observation / body weight / body weight gain + systemic…): 1300 mg/kg/day
LEL (rat [3]; [22]): 202 ppm
LOAEL (rat [3]; [22]): > 767 ppm
NEL (rat [3]; [22]): < 202 ppm
NOAEL (rat [3]; [22]): ≥ 767 ppm
LOAEL (rat [3]; [23]): > 767 ppm
NOAEL (rat [3]; [23]): ≥ 767 ppm
LEL (rat [3]; [24]): 202 ppm
NEL (rat [3]; [24]): < 202 ppm
LEL (rat [4]; [25]): 804 mg/kg/day
LOAEL (rat [4]; [25]): > 2060 mg/kg/day
NEL (rat [4]; [25]): 466 mg/kg/day
NOAEL (rat [4]; [25]): ≥ 2060 mg/kg/day
LEL (rat [4]; [26]): 109 mg/kg/day
NEL (rat [4]; [26]): < 109 mg/kg/day
LOAEL (rat [4]; [27]): 792 mg/kg/day
NOAEL (rat [4]; [27]): 400 mg/kg/day
LEL (rat [5]; [22]): 150 ppm
LOAEL (rat [5]; [22]): > 649 ppm
NEL (rat [5]; [22]): < 150 ppm
NOAEL (rat [5]; [22]): ≥ 649 ppm
LEL (rat [5]; [28]): 150 ppm
NEL (rat [5]; [28]): < 150 ppm
LOAEL (rat [5]; [23]): > 649 ppm
NOAEL (rat [5]; [23]): ≥ 649 ppm
LEL (rat [6]; [29]): 10 ppm
NEL (rat [6]; [29]): < 10 ppm
LOAEL (rat [6]; [30]): > 250 ppm
NOAEL (rat [6]; [30]): ≥ 250 ppm
LEL (rat [6]; [31]): 10 ppm
LOAEL (rat [6]; [31]): > 250 ppm
NEL (rat [6]; [31]): < 10 ppm
NOAEL (rat [6]; [31]): ≥ 250 ppm
LEL (rabbit [7]; [32]): 160 ppm
LOAEL (rabbit [7]; [32]): > 617 ppm
NEL (rabbit [7]; [32]): < 160 ppm
NOAEL (rabbit [7]; [32]): ≥ 617 ppm
LOAEL (rabbit [7]; [33]): > 617 ppm
NOAEL (rabbit [7]; [33]): ≥ 617 ppm
LEL (rabbit [7]; [34]): 160 ppm
NEL (rabbit [7]; [34]): < 160 ppm
LEL (rabbit [8]): 175 ppm
LOAEL (rabbit [8]): > 175 ppm
NEL (rabbit [8]): 50 ppm
NOAEL (rabbit [8]): ≥ 175 ppm
LOAEL (mouse [9]; [35]): > 2000 mg/kg/day
NEL (mouse [9]; [35]): 500 mg/kg/day
NOAEL (mouse [9]; [35]): ≥ 2000 mg/kg/day
LEL (mouse [9]; systemic / pathology gross / testes / reduced size): 1000 mg/kg/day
LEL (rat [10]; [36]): 25 ppm
NEL (rat [10]; [36]): < 25 ppm
LOAEL (rat [10]; [37]): > 400 ppm
NOAEL (rat [10]; [37]): ≥ 400 ppm
LOAEL (rat [11]; [38]): 500 mg/kg/day
NOAEL (rat [11]; [38]): < 500 mg/kg/day
LEL (rat [11]; [39]): 500 mg/kg/day
NEL (rat [11]; [39]): < 500 mg/kg/day

CCOC(=O)C(C)OC(=O)c1cc(Oc2ccc(C(F)(F)F)cc2Cl)ccc1[N+](=O)[O-] (stereo not drawn) [Lactofen]
LEL (rat [12]): 19 mg/kg/day
LOAEL (rat [12]): 19 mg/kg/day
NEL (rat [12]): 2 mg/kg/day
NOAEL (rat [12]): 2 mg/kg/day
LEL (dog; [40]): 0.79 mg/kg/day
NEL (dog; [40]): < 0.79 mg/kg/day
NOAEL (dog; [40]): 0.79 mg/kg/day
LOAEL (dog; systemic / organ weight / adrenal gland / absolute + systemic / organ weight / thyroid gland / absolute): 3.96 mg/kg/day
LEL (mouse [13]): 1.4 mg/kg/day
LOAEL (mouse [13]): 1.4 mg/kg/day
NEL (mouse [13]): < 1.4 mg/kg/day
NOAEL (mouse [13]): < 1.4 mg/kg/day
LEL (rat [14]; [41]): 26.7 mg/kg/day
LOAEL (rat [14]; [41]): 26.7 mg/kg/day
NEL (rat [14]; [41]): 2.7 mg/kg/day
NOAEL (rat [14]; [41]): 2.7 mg/kg/day
LOAEL (rat [14]; group: parental, systemic / in life observation / mortality / mortality): 32.9 mg/kg/day
NOAEL (rat [14]; group: parental, systemic / in life observation / mortality / mortality + systemic / in life observation / body weight / body weight + systemic / organ …): 3.3 mg/kg/day
LEL (rat [14]; [42]): 3.3 mg/kg/day
NEL (rat [14]; [42]): < 3.3 mg/kg/day
LEL (rat [14]; [43]): 26.7 mg/kg/day
LOAEL (rat [14]; [43]): 26.7 mg/kg/day
NEL (rat [14]; [44]): 2.7 mg/kg/day
NOAEL (rat [14]; [44]): 2.7 mg/kg/day
LOAEL (mouse [15]; [45]): 143 mg/kg/day
NOAEL (mouse [15]; [45]): 28.6 mg/kg/day
LEL (mouse [15]; [46]): 5.7 mg/kg/day
NEL (mouse [15]; [46]): < 5.7 mg/kg/day
LOAEL (rat [16]; [45]): 73.7 mg/kg/day
NOAEL (rat [16]; [45]): 14.1 mg/kg/day
LEL (rat [16]; [47]): 2.9 mg/kg/day
NEL (rat [16]; [47]): < 2.9 mg/kg/day
LEL (rat [17]; [48]): 150 mg/kg/day
LOAEL (rat [17]; [48]): 150 mg/kg/day
NEL (rat [17]; [48]): 50 mg/kg/day
NOAEL (rat [17]; [48]): 50 mg/kg/day
LEL (rat [17]; [49]): 150 mg/kg/day
LOAEL (rat [17]; [49]): 150 mg/kg/day
NEL (rat [17]; [49]): 50 mg/kg/day
NOAEL (rat [17]; [49]): 50 mg/kg/day
